{"source": "patent US8691727B2", "about": "“Pesticidal compositions” (Syngenta Crop Protection, LLC, priority 2005, dated 2014)", "key": {"F. subglutinans": {"system": "F. subglutinans", "experiment": "Agar test: seed contamination and mycelium growth on artificially infected corn seeds", "type": "cell-based, Fusarium subglutinans", "conditions": "corn cv. Magister; for FUSSUB Activity Observed / FUSSUB Contaminated Seeds / FUSSUB Mycelium Growth: after 6 days", "method": "(§1) An agar test is performed to evaluate the effect of seed treatments with fludioxonil (2.5 g/100 kg seed)+mefenoxam (1.0 g/100 kg seed), thiabendazole at 10, 15 and 20 g/100 kg seed and the corresponding mixtures of all three components on seed health and viability of corn. Seed lots of corn cv. Magister, is infected artificially with either F. proliferatum or F. subglutinans, are used.\n(§2) Czapek-Dox medium (OXOID) is prepared according to manufacturer's recipe: 45.4 g agar in 1 l aqua bidest., autoclaved for 15 min at 121° C., and is cooled down to 55° C. 15 ml medium is poured into each petridish (Ø 10 cm) and is allowed to cool.\n(§3) 10 seeds are placed on the surface of the agar. 5 replicates per treatment are done. Petridishes are placed in an incubator at 20° C. under NUV-light (12 h a day). The number of seeds where Fusarium spp. grew out on the agar is rated after an incubation period of 6 days.\n(§4) • Mefenoxam (1.0 g ai/100 kg seed)+fludioxonil (2.5 g ai/100 kg seed). • Thiabendazole at 10, 15 and 20 g ai/100 kg seed. • Mefenoxam (1.0 g ai/100 kg seed)+fludioxonil (2.5 g ai/100 kg seed)+thiabendazole (at 10, 15 or 20 g ai/100 kg seed).\n(§5) For combined treatments mefenoxam+fludioxonil are applied first on the seeds as a combined formulation and after drying the second application on the seeds with thiabendazole is performed."}, "F. proliferatum": {"system": "F. proliferatum", "experiment": "Agar test: seed contamination and mycelium growth on artificially infected corn seeds", "type": "cell-based, Fusarium proliferatum", "conditions": "corn cv. Magister, after 6 days", "method": "as §1, §2, §3, §4, §5"}, "[1]": {"conditions": "thiabendazole 10 g ai/100 kg seed (mixture: plus mefenoxam 1.0 g + fludioxonil 2.5 g ai/100 kg seed)"}, "[2]": {"conditions": "thiabendazole 15 g ai/100 kg seed (mixture: plus mefenoxam 1.0 g + fludioxonil 2.5 g ai/100 kg seed)"}, "[3]": {"conditions": "thiabendazole 20 g ai/100 kg seed (mixture: plus mefenoxam 1.0 g + fludioxonil 2.5 g ai/100 kg seed)"}}}
{"compound": "c1ccc2[nH]c(-c3cscn3)nc2c1", "note": "[Thiabendazole, thiabendazole]", "values": [{"measurement": "FUSSUB Activity Observed", "setting": "F. subglutinans; [1]", "value": 32, "unit": "%"}, {"measurement": "FUSSUB Contaminated Seeds", "setting": "F. subglutinans; [1]", "value": 94, "unit": "%"}, {"measurement": "FUSSUB Mycelium Growth", "setting": "F. subglutinans; [1]", "value": 68, "unit": "%"}, {"measurement": "FUSSUB Activity Observed", "setting": "F. subglutinans; [2]", "value": 60, "unit": "%"}, {"measurement": "FUSSUB Contaminated Seeds", "setting": "F. subglutinans; [2]", "value": 100, "unit": "%"}, {"measurement": "FUSSUB Mycelium Growth", "setting": "F. subglutinans; [2]", "value": 40, "unit": "%"}, {"measurement": "FUSSUB Activity Observed", "setting": "F. subglutinans; [3]", "value": 91, "unit": "%"}, {"measurement": "FUSSUB Contaminated Seeds", "setting": "F. subglutinans; [3]", "value": 52, "unit": "%"}, {"measurement": "FUSSUB Mycelium Growth", "setting": "F. subglutinans; [3]", "value": 9, "unit": "%"}, {"measurement": "Mycelium growth, dose response (in words)", "setting": "F. subglutinans; thiabendazole at 10, 15 and 20 g ai/100 kg seed", "value": "linear dose response"}, {"measurement": "FUSPRO Activity Observed", "setting": "F. proliferatum; [1]", "value": 40, "unit": "%"}, {"measurement": "FUSPRO Contaminated Seeds", "setting": "F. proliferatum; [1]", "value": 62, "unit": "%"}, {"measurement": "FUSPRO Mycelium Growth", "setting": "F. proliferatum; [1]", "value": "~60", "unit": "%"}, {"measurement": "FUSPRO Contaminated Seeds", "setting": "F. proliferatum; [2]", "value": 44, "unit": "%"}, {"measurement": "FUSPRO Contaminated Seeds", "setting": "F. proliferatum; [3]", "value": 40, "unit": "%"}, {"measurement": "FUSPRO Contaminated Seeds", "setting": "F. proliferatum; thiabendazole 20 g ai/100 kg seed (mixture: plus mefenoxam 1.0 g + fludioxonil 2.5 g ai/100 kg seed), listed as thiabendazole", "value": "reduces the number of Fusarium infected seeds"}]}
